In patent US8741928B2, “Protected antimicrobial compounds for high temperature applications” (Dow Global Technologies LLC, priority 2010, dated 2014):

Tests used:
T. thermophilus = assay: Biocidal efficacy against thermophilic bacteria at 70° C.; type: cell-based; details: for Kill of bacteria maintained over 21 days: equivalent to 50 ppm glutaraldehyde, 4 hr exposure between challenge and enumeration, weekly challenges over 21 days
Method: b. Thermophilic Bacteria. A 48-72 hour old culture of T. thermophilus is pelleted by centrifuging at 2000 g and the pellet resuspended in 10 times the culture volume of buffer (PBS or carbonate-buffered synthetic freshwater). The suspension is distributed into 10 mL aliquots in glass screw-cap tubes. Each tube is then treated with glutaraldehyde or an adduct and incubated at 70° C. At indicated timepoints, cell density in each tube is measured via dilution to extinction by serially diluting a sample and plating dilutions on solid media.

[1] = Analysis of glutaraldehyde release after heat-aging; type: physicochemical; details: sterile deionized water, molar equivalent of 2000 ppm glutaraldehyde, initial and after heat-aging at 55° C. for 2 h or 24 h; for Glutaraldehyde concentration after pre-column derivatization by HPLC: acidic derivatization
Method: Samples of the AMPD-adduct and TA-adduct are analyzed for glutaraldehyde content. Samples are prepared in sterile deionized water at the molar equivalent of 2000 ppm glutaraldehyde. A standard of 500 ppm glutaraldehyde is also prepared. An initial measurement is taken just after sample preparation. Samples are then heat-aged at 55° C. for 2 h or 24 h and analyzed again. Glutaraldehyde concentration is measured directly via GC and after pre-column derivatization by HPLC.

| SMILES | Control of bacterial levels after 5 days (T. thermophilus; equivalent of 100 ppm glutaraldehyde, after 5 days) | Kill of bacteria maintained over 21 days (T. thermophilus) | Glutaraldehyde concentration measured directly via GC [1] | Glutaraldehyde concentration after pre-column derivatization by HPLC [1] |
| --- | --- | --- | --- | --- |
| O=CCCCC=O [glutaraldehyde, reference compound] | fails to control bacterial levels | 4 log | – | – |
| CC12COC3CCCC(OC1)N32 (centres unmarked) [AMPD-adduct, 2a-methyloctahydro-1,4-dioxa-2a1-azacyclopenta[cd]indene] | – | 4 log | No glutaraldehyde is detected | low levels of glutaraldehyde |
| OCC12COC3CCCC(OC1)N32 (centres unmarked) [TA-adduct, (octahydro-1,4-dioxa-2a^1-azacyclopenta[cd]inden-2a-yl)methanol] | – | 4 log | No glutaraldehyde is detected | low levels of glutaraldehyde |
